Source: ChEMBL document CHEMBL4706694, “Novel bicyclic pyrazoles as potent ALK2 (R206H) inhibitors for the treatment of fibrodysplasia ossificans progressiva” (Bioorg Med Chem Lett, 2021)

Key:
[1] = Metabolic stability in human liver microsomes assessed as parent compound remaining incubated for 60 mins in presence of NADPH by LC-MS/MS analysis; assay type: ADME, Microsome; conditions: read-out: Stabilty
[2] = Metabolic stability in rat liver microsomes assessed as parent compound remaining incubated for 60 mins in presence of NADPH by LC-MS/MS analysis; conditions: read-out: Stabilty
[3] = Inhibition of ALK2 R206H in mouse C2C12 cells assessed as reduction in BMP-induced ALP activity using p-nitrophenyl phosphate as substrate
[4] = biological target: MDR1 (ABCB1, P-glycoprotein) (Homo sapiens, UniProt P08183); experiment: Substrate activity at human MDR1 expressed in MDCK-II cells assessed as apparent permeability across apical to basolateral membrane at 10 uM by LC-MS/MS analysis; assay type: ADME, cell-based
MDR1 (ABCB1, P-glycoprotein), sequence (P08183 whole entry): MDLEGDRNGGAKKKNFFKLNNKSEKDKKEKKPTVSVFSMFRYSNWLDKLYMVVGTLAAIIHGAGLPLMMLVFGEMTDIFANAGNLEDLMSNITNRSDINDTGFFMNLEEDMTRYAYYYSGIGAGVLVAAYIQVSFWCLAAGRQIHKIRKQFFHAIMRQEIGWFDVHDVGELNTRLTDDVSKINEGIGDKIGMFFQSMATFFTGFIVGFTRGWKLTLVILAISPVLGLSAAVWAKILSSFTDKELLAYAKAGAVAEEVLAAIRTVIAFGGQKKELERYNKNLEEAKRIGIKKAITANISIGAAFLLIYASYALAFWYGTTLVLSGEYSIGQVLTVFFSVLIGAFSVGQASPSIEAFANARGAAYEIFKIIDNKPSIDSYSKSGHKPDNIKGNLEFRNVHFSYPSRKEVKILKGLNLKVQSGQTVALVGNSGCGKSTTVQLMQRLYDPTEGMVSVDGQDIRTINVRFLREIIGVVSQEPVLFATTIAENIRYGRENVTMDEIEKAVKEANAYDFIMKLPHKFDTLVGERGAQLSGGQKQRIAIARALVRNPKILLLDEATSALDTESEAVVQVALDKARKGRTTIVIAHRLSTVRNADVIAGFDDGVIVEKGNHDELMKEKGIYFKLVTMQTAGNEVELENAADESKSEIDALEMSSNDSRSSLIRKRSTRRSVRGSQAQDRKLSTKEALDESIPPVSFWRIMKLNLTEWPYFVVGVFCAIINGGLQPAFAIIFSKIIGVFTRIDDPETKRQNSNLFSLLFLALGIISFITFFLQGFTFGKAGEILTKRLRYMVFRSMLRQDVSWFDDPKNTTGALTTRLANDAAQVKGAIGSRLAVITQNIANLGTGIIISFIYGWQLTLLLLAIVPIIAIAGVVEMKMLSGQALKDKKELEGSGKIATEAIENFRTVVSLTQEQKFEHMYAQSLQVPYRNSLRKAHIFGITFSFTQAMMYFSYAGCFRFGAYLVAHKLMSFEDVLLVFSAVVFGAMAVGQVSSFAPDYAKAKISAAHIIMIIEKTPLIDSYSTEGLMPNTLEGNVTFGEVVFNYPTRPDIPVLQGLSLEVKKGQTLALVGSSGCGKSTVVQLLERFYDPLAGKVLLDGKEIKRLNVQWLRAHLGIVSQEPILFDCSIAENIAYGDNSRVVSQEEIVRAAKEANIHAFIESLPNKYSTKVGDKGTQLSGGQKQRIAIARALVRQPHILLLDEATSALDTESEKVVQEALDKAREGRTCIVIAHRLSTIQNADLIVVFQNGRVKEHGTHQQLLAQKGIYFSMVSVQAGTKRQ

hERG (KCNH2) = hERG (KCNH2) (Homo sapiens, UniProt Q12809); experiment: Inhibition of human ERG at 10 uM by automated patch method relative to control
hERG (KCNH2), sequence (Q12809 whole entry): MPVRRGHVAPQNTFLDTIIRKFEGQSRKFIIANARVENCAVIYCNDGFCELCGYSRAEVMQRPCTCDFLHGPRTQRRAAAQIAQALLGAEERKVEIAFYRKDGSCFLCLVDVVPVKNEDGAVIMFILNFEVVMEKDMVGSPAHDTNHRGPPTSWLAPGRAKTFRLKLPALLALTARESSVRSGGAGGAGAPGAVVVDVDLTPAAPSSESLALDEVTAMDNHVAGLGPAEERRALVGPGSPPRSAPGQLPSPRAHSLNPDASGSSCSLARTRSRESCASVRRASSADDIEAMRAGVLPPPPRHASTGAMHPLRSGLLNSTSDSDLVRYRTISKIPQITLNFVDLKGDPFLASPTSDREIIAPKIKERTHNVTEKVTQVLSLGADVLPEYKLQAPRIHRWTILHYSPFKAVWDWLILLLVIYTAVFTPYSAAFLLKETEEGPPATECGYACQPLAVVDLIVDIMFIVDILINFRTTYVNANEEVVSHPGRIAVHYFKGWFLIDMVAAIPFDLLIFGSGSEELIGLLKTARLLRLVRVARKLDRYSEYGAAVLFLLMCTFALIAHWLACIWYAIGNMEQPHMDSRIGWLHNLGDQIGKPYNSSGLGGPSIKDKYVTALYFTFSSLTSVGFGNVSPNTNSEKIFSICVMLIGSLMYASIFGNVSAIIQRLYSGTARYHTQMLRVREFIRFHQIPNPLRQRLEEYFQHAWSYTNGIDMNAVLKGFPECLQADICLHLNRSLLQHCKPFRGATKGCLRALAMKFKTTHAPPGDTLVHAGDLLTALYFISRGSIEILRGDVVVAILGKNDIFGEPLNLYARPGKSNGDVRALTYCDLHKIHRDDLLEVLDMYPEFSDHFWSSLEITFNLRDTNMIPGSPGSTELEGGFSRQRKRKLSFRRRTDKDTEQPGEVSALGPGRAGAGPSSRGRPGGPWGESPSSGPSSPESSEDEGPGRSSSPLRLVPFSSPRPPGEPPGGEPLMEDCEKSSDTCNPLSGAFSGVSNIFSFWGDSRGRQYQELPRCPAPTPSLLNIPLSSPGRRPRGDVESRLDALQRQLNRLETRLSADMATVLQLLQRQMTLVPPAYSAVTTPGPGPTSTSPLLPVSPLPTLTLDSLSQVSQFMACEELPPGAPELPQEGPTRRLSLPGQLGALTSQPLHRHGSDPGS

remaining at 1 h [1]	remaining at 1 h [2]	IC50 [3]	Papp A→B at 10 µM [4]	Structure (SMILES)	inhibition at 10 µM (hERG (KCNH2))
56%	40.5%	37.3 nM	8.69 ×10⁻⁶ cm/s	COCCN1CCN(c2ccc(Nc3nccc(-c4c(-c5cccnc5)nn5c4COCC5)n3)cc2)CC1	3.6%
			0.906 ×10⁻⁶ cm/s	c1cncc(-c2nn3c(c2-c2ccnc(Nc4ccc(N5CCNCC5)cc4)n2)COCC3)c1	
			4.37 ×10⁻⁶ cm/s	CN1CCN(c2ccc(Nc3nccc(-c4c(-c5cccnc5)nn5c4COCC5)n3)cc2)CC1	
14.8%	2.1%	> 100 nM		COc1ccc(Nc2nccc(-c3c[nH]nc3-c3cccnc3)n2)cc1	
